Values joined by “and” are separate entries in the source; they are usually repeats but may differ in a detail not shown here. Identical values can stand only once. Counter-ions that a name gives are not always drawn.
Test system: ANGIOTENSIN II (AII) VASOPRESSOR RESPONSE
Experiment: AII Challenge: angiotensin II (AII) vasopressor response in conscious rats
Assay type: in vivo
Design: Response After AII / Change / Average Change: unit not given here
Conditions: 10 mg/kg i.v.; for Response After AII / Change / Control Before AII: individual rat; for Control Before AII: in mmHg (unit assumed); for % Inhibition / Average Change: n = 2
Method in brief: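 Conscious male Okamoto-Aoki SHR (16-20 weeks, ~330 g), aorta/vena cava cannulated, challenged with AII 0.05 and 0.1 ug/kg i.v. before and at 30-300 min after compound dosed i.v., i.p. or orally. Systolic pressure rise expressed relative to each rat's predose response (100%).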

[1] = AII 0.05 mcg/kg, 30 min post dose
[2] = AII 0.05 mcg/kg, 30 min post dose, listed as Ex. 21, potassium salt
[3] = AII 0.05 mcg/kg, 60 min post dose, listed as Ex. 21, potassium salt
[4] = AII 0.05 mcg/kg, 90 min post dose, listed as Ex. 21, potassium salt
[5] = AII 0.05 mcg/kg, 120 min post dose, listed as Ex. 21, potassium salt
[6] = AII 0.05 mcg/kg, 180 min post dose, listed as Ex. 21, potassium salt
[7] = AII 0.05 mcg/kg, 240 min post dose, listed as Ex. 21, potassium salt
[8] = AII 0.05 mcg/kg, 300 min post dose, listed as Ex. 21, potassium salt
[9] = AII 0.1 mcg/kg, 30 min post dose
[10] = AII 0.1 mcg/kg, 30 min post dose, listed as Ex. 21, potassium salt
[11] = AII 0.1 mcg/kg, 60 min post dose, listed as Ex. 21, potassium salt
[12] = AII 0.1 mcg/kg, 90 min post dose, listed as Ex. 21, potassium salt
[13] = AII 0.1 mcg/kg, 120 min post dose, listed as Ex. 21, potassium salt
[14] = AII 0.1 mcg/kg, 180 min post dose, listed as Ex. 21, potassium salt
[15] = AII 0.1 mcg/kg, 240 min post dose, listed as Ex. 21, potassium salt
[16] = AII 0.1 mcg/kg, 300 min post dose, listed as Ex. 21, potassium salt

## CCCCc1nc2ccnn2c(=O)n1Cc1ccc(-c2ccccc2-c2nn[nH]n2)cc1 [Example 21, 2-Butyl-3-[[2'-(1H-tetrazol-5-yl)-[[1,1'-biphenyl]-4-yl]methyl]-pyrazolo[1,5-a]-1,3,5-triazin-4(3H)-one potassium salt]
[1]
  Response After AII: 220
  % Inhibition: 65%
  Average Change: 15
[2]
  Change: 5 and 25
  Response After AII: 225
  Control Before AII: 215 and 200
[3]
  Change: 25 and 40
  Response After AII: 235 and 250
  Control Before AII: 210
  % Inhibition: 24%
  Average Change: 32.5
[4]
  Change: 20
  Response After AII: 230 and 260
  Control Before AII: 210 and 240
  % Inhibition: 53%
  Average Change: 20
AII 0.05 mcg/kg, 120 min post dose
  Control Before AII: 220
[5]
  Change: 20 and 30
  Response After AII: 240 and 255
  Control Before AII: 225
  % Inhibition: 41%
  Average Change: 25
[6]
  Change: 21 and 45
  Response After AII: 245 and 255
  Control Before AII: 224 and 210
  % Inhibition: 22%
  Average Change: 33
[7]
  Change: 25 and 35
  Response After AII: 245 and 250
  Control Before AII: 220 and 215
  % Inhibition: 29%
  Average Change: 30
[8]
  Change: 31 and 40
  Response After AII: 245 and 250
  Control Before AII: 214 and 210
  % Inhibition: 16%
  Average Change: 35.5
[9]
  Response After AII: 230
  % Inhibition: 58%
  Average Change: 22.5
[10]
  Change: 15 and 30
  Response After AII: 225
  Control Before AII: 210 and 200
[11]
  Change: 20 and 30
  Response After AII: 245 and 255
  Control Before AII: 225
  % Inhibition: 53%
  Average Change: 25
[12]
  Change: 30 and 35
  Response After AII: 245 and 260
  Control Before AII: 215 and 225
  % Inhibition: 39%
  Average Change: 32.5
[13]
  Change: 35 and 40
  Response After AII: 255 and 265
  Control Before AII: 220 and 225
  % Inhibition: 30%
  Average Change: 37.5
AII 0.1 mcg/kg, 180 min post dose
  Control Before AII: 240
[14]
  Change: 30 and 35
  Response After AII: 255 and 275
  Control Before AII: 225
  % Inhibition: 39%
  Average Change: 32.5
[15]
  Change: 40
  Response After AII: 265 and 260
  Control Before AII: 225 and 220
  % Inhibition: 25%
  Average Change: 40
[16]
  Change: 50 and 60
  Response After AII: 265 and 280
  Control Before AII: 215 and 220
  % Inhibition: -3%
  Average Change: 55

Source: US5358947A, “Angiotensin II receptor blocking 2,3-substituted pyrazolo[1,5-a]-1,3,5-triazin-4(3H)-ones” (American Cyanamid Company, priority 1993, dated 1994)
